In US12616713B2, “Methods for enhancing vascular density” (priority 2016, dated 2026):
“Also recorded” adds a separate entry of the source.

Tests used:
Format in all cases: in vivo, mouse
[1] = Food and water intake, body weight and composition, motor and cardiac function of treated old mice; settings: 18-month old mice, NMN 400 mg/kg/day in drinking water, two months
Source text: SIRT1-iKO, SIRT1-Tg and SIRT1^STOP mice were described previously (Firestein et al., 2008, PLoS One 3, e2020; Price et al., 2012, Cell Metab 15, 675-690). Tie2Cre and Sirt1^flox/flox mice were purchased from Jackson Laboratory (Bar Harbor, ME). MCK-PGC-1α and MyogCre mice were gifts from Dr. Bruce Spiegelman (Dana Farber Cancer Center, MA) and Dr. Eric N. Olson (UT Southwestern, Dallas, TX), respectively. mT-STOP^flox/flox, Gfp mouse was generated in house by E.O.W., which consists of an allele driven by ubiquitous actin B promoter, which has loxP sites flanking membrane-targeted tandem dimer Tomato (mT) and transcriptional STOP cassette, followed by a GFP coding sequence. […] Mice were fasted for 6 h and blood glucose levels were measured by tail bleed (Accu Check Performa, Roche). Blood lactate was measured before and immediately after treadmill exercise training for 20 minutes at 15 meters/minute by tail bleed (Accutrend Plus, Roche). […] Urine was collected after a 2 h fast and analyzed for creatinine levels using a colorimetric assay kit (Cayman chemical, US) as per manufacturer's protocol. Motor coordination was assessed using the rotarod test as previously described ([…] et al., 2011, Plos One 6, e20336). […] On the 4th day, the animals were subjected to three trials on the accelerating roller (4-40 rpm in 4 min) and the time that the mice remained was recorded. […]

C57BL/6J mice [2] = experiment: Skeletal muscle capillaries by CD31/laminin immunofluorescence in old mice; settings: NMN 400 mg/kg/day, two months
Source text: SIRT1-iKO, SIRT1-Tg and SIRT1^STOP mice were described previously (Firestein et al., 2008, PLoS One 3, e2020; Price et al., 2012, Cell Metab 15, 675-690). Tie2Cre and Sirt1^flox/flox mice were purchased from Jackson Laboratory (Bar Harbor, ME). MCK-PGC-1α and MyogCre mice were gifts from Dr. Bruce Spiegelman (Dana Farber Cancer Center, MA) and Dr. Eric N. Olson (UT Southwestern, Dallas, TX), respectively. mT-STOP^flox/flox, Gfp mouse was generated in house by E.O.W., which consists of an allele driven by ubiquitous actin B promoter, which has loxP sites flanking membrane-targeted tandem dimer Tomato (mT) and transcriptional STOP cassette, followed by a GFP coding sequence. […] SIRT1-iKO mice were fed tamoxifen (360 mg/kg) diet for five weeks to elicit whole-body SIRT1 exon 4 excision as described previously (Price et al., 2012). […] NMN stock was changed twice per week and […]4137 was supplemented daily. Axitinib (30 mg/kg/day) was given via food and changed daily. Freshly isolated whole quadriceps and gastrocnemius muscle samples were mounted in OCT compound (Tissue-Tek), placed in an isopentane bath and slowly cooled in liquid nitrogen. Transverse sections at 20 μm-thickness were sectioned on a cryostat (Leica). The sections were fixed in pre-cooled acetone (-20° C.) for 10 min and washed with PBS. […] Slides were washed with PBST and then incubated with anti-rat Alexa Fluor 488-conjugated (Life Technologies) and anti-rabbit Alexa Fluor 594-conjugated (Life Technologies) antibodies diluted to 1:500 in blocking buffer for 2 h at room temperature. Slides were washed again with PBST and mounted with Fluoroshield with DAPI mounting medium (Sigma). Images were acquired using a confocal fluorescence microscope (Nikon A1). Quantification of capillaries and capillary density were performed using ImageJ software. TUNEL staining was performed in muscle sections using in situ BrdU-Red DNA fragmentation (TUNEL) assay kit (Abcam) as per manufacturer's protocol.

C57BL/6J mice [3] = experiment: Optoacoustic imaging of hindlimb soluble oxygen (sO2); settings: 20-month old mice, photoacoustic tomography
Method: Optoacoustic imaging. An MSOT inVision 256-TF small animal imaging system (iThera Medical GmbH, Munich, Germany) was used (Morscher et al., 2014, Photoacoustics 2, 103-110). Mice were anesthetized with isoflurane (1.5-2%, 500 ml O2/min), and body portion below chest area was shaved using depilatory cream. The animals were then placed horizontally in the imaging chamber and three-dimensional scanning of the lower portion was performed as per manufacture's protocol. Briefly, a tunable optical parametric oscillator (OPO) pumped by an Nd:YAG laser provided excitation pulses with a duration of 9 ns at wavelengths from 680 nm to 980 nm at a repetition rate of 10 Hz with a wavelength tuning speed of 10 ms and a peak pulse energy of 100 mJ at 730 nm. Ten arms of a fiber bundle provided even illumination of a ring-shaped light strip of approx. 8 mm width. For ultrasound detection, 256 toroidally focused ultrasound transducers with a center frequency of 5 MHz (60% bandwidth), organized in a concave array of 270° angular coverage and a radius of curvature of 4 cm, were used.

C57BL/6J mice [4] = experiment: Post-exercise blood lactate; settings: 20-month old mice
Method: Mice were fasted for 6 h and blood glucose levels were measured by tail bleed (Accu Check Performa, Roche). Blood lactate was measured before and immediately after treadmill exercise training for 20 minutes at 15 meters/minute by tail bleed (Accutrend Plus, Roche). For VEGF analysis, whole blood was drawn from the retroorbital sinus under brief isoflurane anesthesia. The serum was collected and assayed for VEGF expression by ELISA (Eve Technologies, Canada). Urine was collected after a 2 h fast and analyzed for creatinine levels using a colorimetric assay kit (Cayman chemical, US) as per manufacturer's protocol.

With NC(=O)c1ccc[n+]([C@@H]2O[C@H](COP(=O)([O-])O)[C@@H](O)[C@H]2O)c1 [NMN, nicotinamide mononucleotide] the “food intake, water consumption, body weights, body composition, motor learning skills and cardiac function” value [1] was “had no effect”, the gastrocnemius capillarity (C57BL/6J mice [2]; 20-month old WT mice) was “increased capillaries; also recorded: increased gastrocnemius capillarity” and the gastrocnemius capillarity (C57BL/6J mice [2]; 20-month old tamoxifen-treated SIRT1-iKO mice) was “not in SIRT1-iKO mice; also recorded: no change”. The “number of capillaries and capillary density (quadriceps, gastrocnemius)” value (C57BL/6J mice [2]; old mice) was “restored”, the “soluble oxygen (sO2) levels in resting muscle, greater than vehicle-treated controls” value (C57BL/6J mice [3]) was 15% and the post-exercise blood lactate (C57BL/6J mice [4]) was 3.9 mmol/L.
